Assay results reported in patent publication US11059844B2, “Immune stimulating macrolides” (ISR IMMUNE SYSTEM REGULATION HOLDING AB (PUBL), priority 2017, dated 2021).

Legend:
CD4+ T cells = test: IL-1beta secretion from CD4+ T cells (cytometric bead assay); format: cell-based, Human; details: 2 days
Protocol: FIG. 13: IL1b secretion (as measured by cytometric bead assay) from PBMC, macrophages or CD4 T cells stimulated with indicated compound for 48 h.
Study 12: PBMCs, macrophages and CD4+ T cells where exposed to compounds 1 and 2 for 2 days.

PBMCs = test: Supernatant IL-10 sandwich ELISA; format: cell-based, Human; details: […] with 100 U/mL IL-2, 48 h and 7 days
Protocol: Supernatant IL-10 was measured with a standard sandwich ELISA (all antibodies from BD Biosciences) after 48 hours and 7 days incubation with 2.5 μM of compound 1 and 100 U/mL IL-2 (Miltenyi Biotechnologies) in complete RPMI media, 37° C., 5% CO2
Supernatant IL-10 was measured with a standard sandwich ELISA (all antibodies from BD Biosciences) after 48 hours and 7 days incubation with 2.5 uM of compound 1 and 100 U/mL IL-2 (Miltenyi Biotechnologies) in complete RPMI media, 37° C., 5% CO2.
This indicate an immune inhibitory effect under certain conditions (FIG. 5).

[1] = tested on: Monocytes differentiated into macrophages; test: CD80 expression on monocytes differentiated into macrophages; format: cell-based, Human; details: 24 h
Protocol: (§1) Human peripheral blood mononuclear cells (PBMCs) were purified from healthy donors with Ficoll-Paque density centrifugation. Cells were cultured in complete RPMI-1640 media (Invitrogen) supplemented with 25 mM HEPES, L-glutamine, Sodium pyruvate (Sigma), 10% fetal bovine serum, 100 μg/mL penicillin and 100 μg/mL streptomycin (Hyclone) for 24-72 hours in 37° C., 5% CO2 and stimulated with and increasing concentrations of compound 1 and 2. Cells were then washed in PBS and stained with monoclonal antibodies specific for cell surface markers (BD Pharmingen) and analysed with flow cytomtetry using a BD FACS Canto II flow cytometer. All samples were tested in duplicates.
Human peripheral blood mononuclear cells (PBMCs) were purified from healthy donors with Ficoll-Paque density centrifugation. Cells were cultured in complete RPMI-1640 medium (Invitrogen) supplemented with 25 mM HEPES, L-glutamine, Sodium pyruvate (Sigma), 10% fetal bovine serum, 100 μg/mL penicillin and 100 μg/mL streptomycin (Hyclone). […] The cells were removed from the plate, washed in PBS and analysed for expression of cell specific surface markers and MHC class I with flow cytomtery using monoclonal antibodies from BD Pharmingen and a FACS Canto II flow cytometer.

[2] = tested on: peripheral blood mononuclear cells (PBMC); test: Marker expression on PBMC by flow cytometry; format: cell-based, Human; details: 24 h
Protocol: as §1
Human peripheral blood mononuclear cells (PBMCs) were purified from healthy donors with Ficoll-Paque density centrifugation. Cells were cultured in complete RPMI-1640 medium (Invitrogen) supplemented with 25 mM HEPES, L-glutamine, Sodium pyruvate (Sigma), 10% fetal bovine serum, 100 μg/mL penicillin and 100 μg/mL streptomycin (Hyclone). Cells were stimulated for 24 h (study 1-4) or 48 h to 1 week (study 5) in 37° C., 5% CO2 with increasing concentrations of compound 1 and 2 in tissue culture plates. The cells were removed from the plate, washed in PBS and analysed for expression of cell specific surface markers and MHC class I with flow cytomtery using monoclonal antibodies from BD Pharmingen and a FACS Canto II flow cytometer.

T cells in PBMC = test: T cell proliferation, Cell Trace Violet and flow cytometry; format: cell-based, Human; details: 6 days in the presence of IL-2
Protocol: FIG. 7. CD4 T cell proliferation after 6 days stimulation with compound 1, measured with proliferation dye Celltrace violet (Invitrogen) and flow cytometry. Untreated cells (UNT) or compound A were used as controls.
Study 6: PBMC were stimulated with compound 1 and cultured in RPMI media for 6 days in the presence of IL-2 (Miltenyi Biotechnologies) and Cell Trace Violet Dye (Invitrogen). Proliferation was measured with flow cytometry.

Lactobacillus casei = test: Minimum Inhibitory Concentration (MIC) assay; format: cell-based; details: Lacticaseibacillus casei; anaerobic, 37° C., 18 h
Protocol: (§2) The bioactivity of macrolide compounds against 4 strains of common gut bacteria (Escherichia coli, Streptococcus salivarius subsp. salivarius, Lactobacillus casei and Bifidobacterium longum subsp. infantis) and common mammalian skin isolate Micrococcus luteus, was assessed using the Minimum Inhibitory Concentration (MIC) assay. Bacterial strains were purchased from DSMZ (Brunswick, Germany) except M. luteus which was obtained from NCIMB, and stored in 20% glycerol at −80° C. Stock solutions (100% DMSO) of positive controls (azithromycin and erythromycin), and of test compounds 1 and 2 were diluted in broth to working stock concentrations of 256 μg/ml (final assay testing concentration range 128 μg/ml to 0.00391 μg/ml). Stock solutions of all other compounds were diluted in broth to working stock concentrations of 128 μg/ml (final assay testing concentration range 64 μg/ml to 0.00195 μg/ml). Bacterial strains were cultivated in appropriate broth in an anaerobic chamber at 37° C., except for M. luteus which was incubated aerobically at 37° C. 18 h cultures were diluted in broth to an OD595 of 0.1 and then further diluted 1:10. In 96-well plates, in duplicate, 200 μl working stock of test compound was transferred to well 1 and serially diluted (1:2) in broth. 100 μl bacterial suspension was aliquoted into each well and mixed thoroughly. Appropriate sterility controls were included and plates were incubated in an anaerobic chamber, or aerobically (M. luteus) at 37° C. for 18 h. The MIC was determined to be the concentration of test compound in the first well with no visible growth.

Escherichia coli = test: Minimum Inhibitory Concentration (MIC) assay; format: cell-based; details: anaerobic, 37° C., 18 h
Protocol: as §2

Micrococcus luteus = test: Minimum Inhibitory Concentration (MIC) assay; format: cell-based; details: aerobic, 37° C., 18 h
Protocol: as §2

[3] = tested on: Bifidobacterium longum subsp. infantis; test: Minimum Inhibitory Concentration (MIC) assay; format: cell-based; details: anaerobic, 37° C., 18 h
Protocol: as §2

[4] = tested on: Streptococcus salivarius subsp. salivarius; test: Minimum Inhibitory Concentration (MIC) assay; format: cell-based; details: anaerobic, 37° C., 18 h
Protocol: as §2

[5] = tested on: CMV specific CD8+ T cells; test: CMV cultures: phenotype of CMV specific CD8+ T cells; format: cell-based, Human; details: CMV antigen, 6 days
Protocol: Human peripheral blood mononuclear cells (PBMCs) were purified from healthy CMV positive donors with Ficoll-Paque density centrifugation. The PBMC were labeled with 5 μM celltrace violet (Invitrogen) in PBS for 15 minutes and then washed with complete cell culture medium. The labeled PBMC was cultured in the presence of a peptide library spanning the CMV pp65 protein (1 μg peptide/ml, JPT) in AIM-V media (Invitrogen) supplemented with L-glutamine, Sodium pyruvate (Sigma), 10% fetal bovine serum, 100 μg/mL penicillin and 100 μg/mL streptomycin (Hyclone) for 6-8 days in 37° C., 5% CO2. Cell proliferation was assessed with flow cytomtery using a BD FACS Canto II flow cytometer.
Study 7: Virus specific T cell proliferation was also affected by compound 1. […] CD127 is crucial for T cell homeostasis, differentiation and function, and reduced expression correlates with disease severity in HIV and other chronic viral diseases (Crawley et al. 2012).

[6] = tested on: E. coli, S. salivarius, L. casei, B. longum or M. luteus; test: Direct antibacterial activity, summary over all strains tested; format: cell-based; details: summary in words of Table 1
Protocol: as §2

CC[C@H]1OC(=O)[C@H](C)[C@@H](O[C@H]2C[C@@H](N(C)C)[C@H](O)[C@@H](C)O2)[C@H](C)[C@@H](O)[C@](C)(O)C[C@@H](C)CN(C)[C@H](C)[C@@H](O)[C@]1(C)O [Compound 1]
IL-1beta secretion, CD4+ T cells (CD4+ T cells): no IL-1beta was induced | production of IL-10 (PBMCs): increased production | CD80 on macrophages [1]: upregulated | activation marker CD69 on CD4+ T cells and B cells ([2]; 1 μM): upregulated | MHC class I (HLA-ABC) on T- and B-cells [2]: upregulation | MHC class II (HLA-DR) on monocytes [2]: upregulation | co-stimulatory molecule CD80 on monocytes [2]: upregulation | cytokine driven proliferation of T cells (T cells in PBMC): altered cytokine driven proliferation profile | MIC (Lactobacillus casei): > 64 µg/mL | MIC (Escherichia coli): > 64 µg/mL | MIC (Micrococcus luteus): > 256 µg/mL | MIC [3]: > 64 µg/mL | MIC [4]: > 64 µg/mL | expression of IL-7 receptor a (CD127) on activated CMV specific CD8+ T cells [5]: increased expression | antibacterial activity against the bacterial strains tested [6]: no antibacterial activity
